# Where two headings read alike, the source gives them in different places.
# Columns and labels:
# [1] = Pharmacokinetic study in rats (intragastrical administration); conditions: plasma
# Method: (§1) All measurement data were collected and processed by Masslynx V4.1 software, and the data were calculated and processed by Microsoft Excel. The statistical moment method of WinNonLin 8.0 software was used to calculate the pharmacokinetic parameters. These mainly include kinetic parameters Tmax, T1/2, Cmax, AUC0-24 h etc. Column: ACQUITY UPLC BEH C18 (2.1 mm×50 mm, 1.7 μm); column temperature 40° C.; mobile phase A is water (0.1% formic acid), mobile phase B is acetonitrile, flow rate is 0.350 mL/min, gradient elution is adopted, the elution gradient is 0.50 min: 10% B; 1.50 min: 90% B; 2.50 min: 90% B; 2.51 min: 10% B; 3.50 min: stop. Injection volume: 1 μL.
# (§2) Animals: 3 male SD rats with a weight range of 200-220 g were purchased and kept in the laboratory of the Experimental Animal Center for 2 days and then used. They were fasted for 12 hours predose and 4 hours after dosing. Drinking water was free during the test. After the rats were gavage, blood samples were taken according to the established time point.
# (§3) Solvent: 0.4% ethanol+0.4% Tween80+99.2% (0.5% methylcellulose M450). Preparation of the solution for intragastrical administration: the compounds were accurately weighed and added to the solvent, and ultrasound was used at room temperature for 5 minutes to completely dissolve the drug, and a 0.3 mg/mL medicinal solution was prepared.
# (§4) A single administration was also used to study the pharmacokinetics of the drug sample in rats.
# (§5) After intragastrical administration, blood was taken from the orbit at 0.25, 0.5, 1, 2, 4, 8, 10 and 24 hours. Then 50 μL of the plasma sample was taken and added 200 μL of acetonitrile (including internal standard control verapamil 2 ng/mL), vortexed for 3 min and centrifuged at 20000 rcf, 4° C. for 10 min. The supernatant plasma was used for LC-MS/MS analysis.
# (§6) The compounds were accurately weighed to prepare different concentrations, and quantitative analysis on mass spectrometry was performed to establish a standard curve, and then the concentration of the above-mentioned compound in the plasma was tested to obtain its concentration at different time points. All measurement data were collected and processed by relevant software, and the statistical moment method was used to calculate the pharmacokinetic parameters (mainly including kinetic parameters Tmax, T1/2, Cmax, AUC0-24 h etc).
# [2] = target: KAT6A enzyme (catalytic domain) (Homo sapiens (Human), UniProt Q92794); experiment: Inhibition of KAT6A enzyme activity ([3H]-acetyl-CoA / H3 (1-21) peptide, Flashplate); format: biochemical; conditions: for inhibition at 0.011 µM: KAT6A, compound concentration 11 nM, read-out: Inhibition % of compounds at the concentration of 11 nM; for IC50: KAT6A catalytic domain, [3H]-acetyl-CoA, substrate peptide H3 (1-21)
# Method: No. […] The plate was incubated at room temperature for 1 hour. 10 μL of the stop solution was added to terminate the reaction. 25 μL of the reaction solution was transferred to a Flashplate (Perkin Elmer, Cat. No. […]) and incubated at room temperature for 1 hour. The plate was read using Microbeta. The inhibition rate of the compounds was calculated using the formula of Excel: inhibition %=(Max-Signal)/(Max-Min)*100%. Where max is the value of the DMSO control, min is the value of the non-enzymatic control, and signal is the value of the well where the compound was tested. The curve was fitted using XLFit software and IC50 was calculated.
# [3] = rat, in vivo, po, 3 mg/kg
# Method: as §1, §2, §3, §4, §5, §6
# [4] = male SD rats, intragastrical, 1.5 mg/Kg
# Chain of KAT6A enzyme (catalytic domain) (Q92794 504-778): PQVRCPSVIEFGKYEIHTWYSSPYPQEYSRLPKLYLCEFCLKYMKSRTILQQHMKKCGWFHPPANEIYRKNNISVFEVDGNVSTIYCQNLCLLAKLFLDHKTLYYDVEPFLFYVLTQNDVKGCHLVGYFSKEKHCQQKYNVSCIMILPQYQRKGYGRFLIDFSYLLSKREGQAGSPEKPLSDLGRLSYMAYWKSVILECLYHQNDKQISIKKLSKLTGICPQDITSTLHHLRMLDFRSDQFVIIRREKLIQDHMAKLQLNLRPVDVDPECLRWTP
"AUC(0-t) ([1]; male, SD, rat, po, 3 mg/kg) [ng·h/mL]","Cmax ([1]; male, SD, rat, po, 3 mg/kg) [ng/mL]","Tmax ([1]; male, SD, rat, po, 3 mg/kg) [h]","half-life ([1]; male, SD, rat, po, 3 mg/kg) [h]",Structure (SMILES),IC50 [2] [nM],also measured
–,–,–,–,C#Cc1ccc(S(=O)(=O)Nc2noc3cc(Cn4cccn4)cc(OC)c23)c(OC)c1 [Compound 11],–,"AUC(0-t) ([1]; male, SD, rat, po, 2 mg/kg): 53700 ng·h/mL; Cmax ([1]; male, SD, rat, po, 2 mg/kg): 6380 ng/mL; Tmax ([1]; male, SD, rat, po, 2 mg/kg): 1.33 h; half-life ([1]; male, SD, rat, po, 2 mg/kg): 5.29 h"
3120,229,2.67,3.17,COc1cc(N2CCC2)ccc1S(=O)(=O)Nc1noc2cc(Cn3cccn3)cc(OC)c12 [Compound 17],–,inhibition at 0.011 µM [2]: 75%
82200,4830,2,24.6,COc1cc(C#CC2CC2)ccc1S(=O)(=O)Nc1noc2cc(Cn3cccn3)cc(OC)c12 [Compound 12],–,–
45300,2790,2.67,14.4,CC#Cc1ccc(S(=O)(=O)Nc2noc3cc(Cn4cccn4)cc(OC)c23)c(OC)c1 [Compound 16],–,–
5960,428,3.33,6.62,COc1cc(C#CC2COC2)cc(OC)c1S(=O)(=O)Nc1noc2cc(Cn3cccn3)cc(OC)c12 [Compound 14],–,inhibition at 0.011 µM [2]: 67%
–,–,–,–,COc1ccc(N2CCC2)cc1S(=O)(=O)Nc1noc2cc(Cn3cccn3)cc(OC)c12 [Compound 2],< 10,–
–,–,–,–,COc1ccc(OC2CCC2)cc1S(=O)(=O)Nc1noc2cc(Cn3cccn3)cc(OC)c12 [Compound 1],< 5,"AUC0-24h [1, 4]: 4481.07 ng·h/mL; Cmax [1, 4]: 392.76 ng/mL; T1/2 [1, 4]: 2.66 h; Tmax [1, 4]: 3.00 h"
–,–,–,–,C#Cc1cc(OC)c(S(=O)(=O)Nc2noc3cc(Cn4cccn4)cc(OC)c23)c(OC)c1 [Compound 4],< 5,AUC0-24h [3]: 109958.71 ng·h/mL; Cmax [3]: 6737.13 ng/mL; T1/2 [3]: 8.04 h; Tmax [3]: 9.33 h
32500,2120,3.33,7.85,COc1cc(C#CC2CC(F)(F)C2)cc(OC)c1S(=O)(=O)Nc1noc2cc(Cn3cccn3)cc(OC)c12 [Compound 15],–,–
